Type in all cases: functional
In assay [1] the test system is Escherichia coli. Briefly: Antimicrobial activity against Escherichia coli EMBLC-1 by serial dilution technique.
For assay [2], the system named is Edwardsiella tarda. Briefly: Antimicrobial activity against Edwardsiella tarda QDIO-9 by serial dilution technique.
The test system of assay [3] is Pseudomonas aeruginosa. Kind of assay: Antimicrobial activity against Pseudomonas aeruginosa QDIO-4 by serial dilution technique.
For assay [4], the system named is Vibrio harveyi. Briefly: Antimicrobial activity against Vibrio harveyi QDIO-7 by serial dilution technique.
The subject of assay [5] is Aeromonas hydrophila. Kind of assay: Antimicrobial activity against Aeromonas hydrophila QDIO-1 by serial dilution technique.
Assay [6] deals with Micrococcus luteus. Kind of assay: Antimicrobial activity against Micrococcus luteus QDIO-3 by serial dilution technique.
Assay [7] has as its system Vibrio parahaemolyticus. Briefly: Antimicrobial activity against Vibrio parahaemolyticus QDIO-8 by serial dilution technique.
The test system of assay [8] is Ceratobasidium cereale. Kind of assay: Antimicrobial activity against Rhizoctonia cerealis QDAU-20 by serial dilution technique.
Assay [9] has as its system Gaeumannomyces graminis. Kind of assay: Antimicrobial activity against Gaeumannomyces graminis QDAU-21 by serial dilution technique.
Assay [10] deals with Fusarium oxysporum. Briefly: Antimicrobial activity against Fusarium oxysporum QDAU-8 by serial dilution technique.
Assay [11] relates to Colletotrichum gloeosporioides. Kind of assay: Antimicrobial activity against Colletotrichum gloeosporioides QDAU-2 by serial dilution technique.

Among the data in ChEMBL document CHEMBL4699464, “Talascortenes A-G, Highly Oxygenated Diterpenoid Acids from the Sea-Anemone-Derived Endozoic Fungus Talaromyces scorteus AS-242” (2020) are MIC values, retold here.

≈ marks a conversion by molar mass, not a printed value.

As for `C=C[C@]1(C)CCC2=C(CC[C@]3(O)[C@@](C)(C(=O)O)CCC[C@]23C)[C@H]1O`, the MIC in [1] is 16 µg/mL (≈ 47.8 µM); in [2], > 32 µg/mL; in assay [3] it was > 32 µg/mL; in assay [4], 8 µg/mL (≈ 23.9 µM); in [5], 16 µg/mL (≈ 47.8 µM); in assay [6] it was > 32 µg/mL. Besides, the MIC in assay [7], in assay [8], in assay [9], in [10] and in [11] was > 32 µg/mL in each case.

Consider `C=C[C@]1(C)CCC2=C(CC[C@@]3(O)[C@@](C)(C(=O)O)[C@H](O)CC[C@]23C)[C@H]1O`, for which the MIC in [1] was 8 µg/mL (≈ 22.8 µM); in assay [2] it was > 32 µg/mL; in assay [3], > 32 µg/mL; in assay [4], > 32 µg/mL; in assay [5], > 32 µg/mL; in assay [6] it was > 32 µg/mL. In addition, the MIC in assay [7], in [8], in [9], in assay [10] and in [11] was > 32 µg/mL throughout.

In the case of `C[C@]1(O)C[C@]23CC[C@H]1C[C@@H]2[C@@]1(C)CCC[C@](C)(C(=O)O)[C@]1(O)CC3`, the MIC was 32 µg/mL (≈ 95.1 µM) in assay [1]; 16 µg/mL (≈ 47.6 µM) in assay [2]; 16 µg/mL (≈ 47.6 µM) in assay [3]; > 32 µg/mL in [4]; > 32 µg/mL in [5]; 2 µg/mL (≈ 5.94 µM) in assay [6]. Also, the MIC in assay [7] was > 32 µg/mL; in assay [8], 8 µg/mL (≈ 23.8 µM); in assay [9] it was 4 µg/mL (≈ 11.9 µM); in [10], 16 µg/mL (≈ 47.6 µM); in assay [11], > 32 µg/mL.

With `C=C[C@]1(C)CC[C@@]2(O)[C@](O)(CC[C@]3(O)[C@]2(C)CCC[C@]3(C)C(=O)O)C1`, the minimum inhibitory concentration (MIC) in assay [1] is 8 µg/mL (≈ 22.7 µM); in [2], > 32 µg/mL; in assay [3], > 32 µg/mL; in [4], > 32 µg/mL; in assay [5], > 32 µg/mL; in assay [6], > 32 µg/mL. The MIC in [7], in [8], in assay [9], in assay [10] and in assay [11] was > 32 µg/mL in each case.

Consider `C=C[C@H]1[C@@H]2CC[C@@]3(O)[C@@](C)(C(=O)O)[C@H](O)CC[C@]3(C)[C@H]2CC[C@@]1(O)CCl`, for which the MIC in [1] is > 32 µg/mL; in [2] it was > 32 µg/mL; in assay [3], > 32 µg/mL; in [4] it was > 32 µg/mL; in [5], > 32 µg/mL; in [6] it was 4 µg/mL (≈ 10.3 µM). In addition, the MIC in [7] was 32 µg/mL (≈ 82.7 µM); in [8], > 32 µg/mL; in [9], > 32 µg/mL; in [10] it was > 32 µg/mL; in assay [11], > 32 µg/mL.

For the compound `C=C[C@]1(C)CCC2=C(CC[C@@]3(O)[C@@](C)(C(=O)O)CCC[C@]23C)[C@H]1OC`, the MIC was 1 µg/mL (≈ 2.87 µM) in assay [1]; > 32 µg/mL in assay [2]; > 32 µg/mL in [3]; > 32 µg/mL in [4]; > 32 µg/mL in assay [5]; 8 µg/mL (≈ 23 µM) in assay [6]. The MIC was > 32 µg/mL in assay [7]; > 32 µg/mL in assay [8]; > 32 µg/mL in [9]; > 32 µg/mL in assay [10]; 2 µg/mL (≈ 5.74 µM) in assay [11].

As for `C=C1CC[C@]2(O)[C@](C)(CCC[C@]2(C)C(=O)O)[C@]1(O)CC/C(C)=C/CO`, the MIC in [1], in assay [2], in [3], in assay [4], in assay [5] and in assay [6] was > 32 µg/mL each time. Also, the MIC in [7] is 8 µg/mL (≈ 22.7 µM); in assay [8], > 32 µg/mL; in assay [9], > 32 µg/mL; in assay [10], > 32 µg/mL; in [11] it was > 32 µg/mL.

Consider `C=C[C@]1(C)CCC2=C(CC[C@@]3(O)[C@@](C)(C(=O)O)[C@H](O)CC[C@]23C)[C@@H]1OC`, for which the MIC is > 32 µg/mL in assay [1]; > 32 µg/mL in assay [2]; 32 µg/mL (≈ 87.8 µM) in [3]; > 32 µg/mL in assay [4]; > 32 µg/mL in assay [5]; > 32 µg/mL in assay [6]. Also, the MIC in assay [7] is 8 µg/mL (≈ 21.9 µM); in assay [8] it was > 32 µg/mL; in assay [9] it was > 32 µg/mL; in assay [10], > 32 µg/mL; in assay [11], > 32 µg/mL.

As for `C[C@@H]1[C@H](O)[C@@H](C)/C=C/C=C/C=C/C=C/C=C/C=C/C=C/[C@H](O[C@@H]2O[C@H](C)[C@@H](O)[C@H](N)[C@@H]2O)C[C@@H]2O[C@](O)(C[C@@H](O)C[C@@H](O)[C@H](O)CC[C@@H](O)C[C@@H](O)CC(=O)O[C@H]1C)C[C@H](O)[C@H]2C(=O)O` [AMPHOTERICIN B], the MIC in assay [8] was determined as 1 µg/mL (≈ 1.08 µM); in assay [9] it was 1 µg/mL (≈ 1.08 µM); in assay [10], 0.5 µg/mL (≈ 0.541 µM); in assay [11], 2 µg/mL (≈ 2.16 µM).

On to `O=C(N[C@H](CO)[C@H](O)c1ccc([N+](=O)[O-])cc1)C(Cl)Cl` [CHLORAMPHENICOL], for which the MIC in assay [1] worked out at 1 µg/mL (≈ 3.09 µM); in assay [2], 0.5 µg/mL (≈ 1.55 µM); in [3] it was 2 µg/mL (≈ 6.19 µM); in [4], 2 µg/mL (≈ 6.19 µM); in [5], 4 µg/mL (≈ 12.4 µM); in assay [6], 1 µg/mL (≈ 3.09 µM). In [7], this compound showed an MIC of 0.5 µg/mL (≈ 1.55 µM).

As usually defined, the MIC is the lowest concentration that inhibits growth of the organism. High values mean weaker potency, low ones greater potency.
